In US20080234326A1, “Novel Salts of Pantoprazole and (S) - Pantoprazole” (Altana Pharma AG, priority 2004, published 2008):

Assay: stability as a storage form
Type: physicochemical
Details: statement in words, no method or data given

- formation of a stable storage form: does not form a stable storage form
SMILES: COc1ccnc(C[S+]([O-])c2nc3cc(OC(F)F)ccc3[n-]2)c1OC.[Na+] [sodium salt of (−)- or (S)-pantoprazole]
